Reference: patent publication US9078712B2, “Preformed drug-eluting device to be affixed to an anterior spinal plate” (Warsaw Orthopedic, Inc., priority 2009, dated 2015)

Experiment: Effect of autoclave sterilization on final drug concentration in silicone (FIG. 11)
Format: physicochemical
Conditions: starting concentration about 0.0738 wt %, autoclave about 30 minutes
Procedure: FIG. 11 illustrates the effect of sterilization on the final drug concentration, showing the degradation rate versus autoclave time, for example, with a starting concentration of about 0.0738 wt % rifampin in the silicone and running the autoclave about 30 minutes will result in a final concentration of about 0.054 wt % rifampin in the silicone sleeve.
The term “weight percent” or “wt %” means the ratio of the drug weight to the weight of the biocompatible matrix, e.g., the silicone after sterilization, for example, an initial concentration of rifampin of about 0.0738 wt % with about a 30 minute autoclave time will result in a final wt % of about 0.054 in the sterilized product.

CO[C@H]1/C=C/O[C@@]2(C)Oc3c(C)c(O)c4c(O)c(c(/C=N/N5CCN(C)CC5)c(O)c4c3C2=O)NC(=O)/C(C)=C\C=C\[C@H](C)[C@H](O)[C@@H](C)[C@@H](O)[C@@H](C)[C@H](OC(C)=O)[C@@H]1C [rifampin]
final concentration of rifampin in the silicone after autoclave sterilization: about 0.054 wt %
